Tests used:
[1] = target: class A β-lactamase TEM-1 (Escherichia coli, UniProt P62593); assay: β-Lactamase inhibition, IC50 determination (nitrocefin, spectrophotometric); format: biochemical, E. Coli; conditions: enzyme 4.3 nM; 10 min preincubation at 25° C.; nitrocefin 50 μg/ml; 50 mM PO4, pH 7.0; read-out: IC50 (nM) Class A TEM-1
Description: (§1) IC50 Determination for the Penem Inhibitor
(§2) β-Lactamase inhibitory activity of the penem inhibitors was determined spectrophotometrically as described by Bush et al., [Bush, K., Macalintal, C., Rasmussen, B. A., Lee, V. and Yang, Y. Antimicrobial Agents and Chemotherapy 1993, 37, 851]. Homogeneously purified class A β-lactamases TEM-1 from E. Coli and Imi-1 from Enterobacter cloacae, class B enzyme CcrA from Bacteroides fragilis and class C enzyme AmpC from Enterobacter cloaca were employed in the assay. The enzyme concentrations for TEM-1, Imi-1, CcrA and AmpC were 4.3, 7.1, 1.2 and 2.1 nM, respectively. A wide range of inhibitor concentrations were prepared in 50 mM PO4, pH 7.0 to include the possible IC50 values. The substrate used to initiate the enzyme reaction was nitrocefin at 50 μg/ml in the same buffer as the inhibitor. Initially the enzyme and inhibitor (20 μl each) were preincubated for 10 minutes at 25° C. prior to the addition of 160 μl volume of nitrocefin. Initial rates of hydrolysis were monitored for 5 minutes at 495 nm using a Molecular Devices Spectra Max 250 with kinetic protocol of SoftMax Program. Readings from the Spectra Max 250 were exported and transferred to Microsoft Excel. The percent of inhibition of each inhibitor concentration was calculated based on the control enzyme activity. The inhibitor concentration that caused a 50% reduction in the enzymatic activity (IC50) was determined graphically.

class C enzyme AmpC = class C enzyme AmpC (Enterobacter cloacae, UniProt P05364); assay: biochemical; set-up: species or system Enterobacter cloaca; conditions: enzyme 2.1 nM; 10 min preincubation at 25° C.; nitrocefin 50 μg/ml; 50 mM PO4, pH 7.0; read-out: IC50 (nM) Class C AmpC
class C enzyme AmpC, sequence (P05364 21-381): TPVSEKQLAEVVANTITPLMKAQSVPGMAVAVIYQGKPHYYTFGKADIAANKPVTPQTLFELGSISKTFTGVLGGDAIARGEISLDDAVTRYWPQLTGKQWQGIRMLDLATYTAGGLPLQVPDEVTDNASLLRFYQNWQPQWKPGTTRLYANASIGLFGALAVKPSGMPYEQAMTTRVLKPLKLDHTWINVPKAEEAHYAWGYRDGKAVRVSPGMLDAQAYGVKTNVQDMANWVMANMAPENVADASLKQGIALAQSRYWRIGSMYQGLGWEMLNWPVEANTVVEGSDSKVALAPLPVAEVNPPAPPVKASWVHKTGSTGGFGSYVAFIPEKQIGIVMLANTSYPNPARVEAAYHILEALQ
Description: as §1, §2

[2] = target: class A β-lactamase Imi-1 (Enterobacter cloacae, UniProt Q46991); assay: β-Lactamase inhibition, IC50 determination (nitrocefin, spectrophotometric); format: biochemical; conditions: enzyme 7.1 nM; 10 min preincubation at 25° C.; nitrocefin 50 μg/ml; 50 mM PO4, pH 7.0; read-out: IC50 (nM) Class A Imi
class A β-lactamase Imi-1, sequence (Q46991 entry or part of it): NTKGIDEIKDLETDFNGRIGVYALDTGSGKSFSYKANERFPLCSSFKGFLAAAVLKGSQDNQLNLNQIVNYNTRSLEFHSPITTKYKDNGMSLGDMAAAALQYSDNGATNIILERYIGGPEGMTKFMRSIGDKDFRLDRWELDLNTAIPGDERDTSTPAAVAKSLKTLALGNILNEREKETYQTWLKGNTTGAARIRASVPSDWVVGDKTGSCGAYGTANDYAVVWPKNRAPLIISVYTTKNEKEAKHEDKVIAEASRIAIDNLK
Description: as §1, §2

class B enzyme CcrA = class B enzyme CcrA (Bacteroides fragilis, UniProt P25910); assay: as above; format: biochemical; conditions: enzyme 1.2 nM; 10 min preincubation at 25° C.; nitrocefin 50 μg/ml; 50 mM PO4, pH 7.0; read-out: IC50 (nM) Class B Ccr
class B enzyme CcrA, sequence (P25910 19-249): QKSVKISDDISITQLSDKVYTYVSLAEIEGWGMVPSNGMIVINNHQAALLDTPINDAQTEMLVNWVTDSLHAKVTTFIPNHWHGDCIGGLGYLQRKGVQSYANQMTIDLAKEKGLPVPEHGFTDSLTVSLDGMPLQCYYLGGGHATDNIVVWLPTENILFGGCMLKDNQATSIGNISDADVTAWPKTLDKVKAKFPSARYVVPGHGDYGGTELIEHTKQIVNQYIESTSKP
Description: as §1, §2

[3] = system: S. Marcescens GC1781 Sme-1 + Ampc; assay: Antimicrobial susceptibility testing, microbroth dilution MIC of piperacillin + inhibitor; format: cell-based; conditions: piperacillin combined with constant 4 μg/ml inhibitor; Inc: 35° C. for 18 hours
Description: (§3) Antimicrobial susceptibility testing. The in vitro activities of the antibiotics were determined by the microbroth dilution method as recommended by the National Committee for Clinical Laboratory Standards (NCCLS). (NCCLS. 2000. Methods for Dilution Antimicrobial Susceptibility Tests for Bacteria That Grow Aerobically; Approved Standards: M7-A5, vol. 19. National Committee for Clinical Laboratory Standards, Villanova, Pa.). Mueller-Hinton it broth (MHBII)(BBL Cockeysville, Md.), was used for the testing procedure. Microtiter plates containing 50 μl per well of two-fold serial dilutions of piperacillin combined with a constant amount (4 μg/ml) of a B-lactamase inhibitor (final concentration) were inoculated with 50 μl of inoculum to yield the appropriate density (10^5 CFU/ml) in 100 μl. The plates were incubated for 18-22 hours at 35° C. in ambient air.

E. Coli GC2844 = assay: as above; format: cell-based; conditions: piperacillin combined with constant 4 μg/ml inhibitor; Inc: 35° C. for 18 hours
Description: as §3

[4] = system: P. aeruginos GC1764 (Ampc); assay: as above; format: cell-based; conditions: piperacillin combined with constant 4 μg/ml inhibitor; Inc: 35° C. for 18 hours
Description: as §3

E. Coli GC2847 (TEM-1) = assay: as above; format: cell-based; conditions: piperacillin combined with constant 4 μg/ml inhibitor; Inc: 35° C. for 18 hours
Description: as §3

E. Cloacae GC1477 (Ampc) = assay: as above; format: cell-based; conditions: piperacillin combined with constant 4 μg/ml inhibitor; Inc: 35° C. for 18 hours
Description: as §3

S. aureus GC2216 = assay: as above; format: cell-based; conditions: piperacillin combined with constant 4 μg/ml inhibitor; Inc: 35° C. for 18 hours
Description: as §3

E. Coli GC2894 (Ampc) = assay: as above; format: cell-based; conditions: piperacillin combined with constant 4 μg/ml inhibitor; Inc: 35° C. for 18 hours
Description: as §3

E. Coli GC2920 (IRT-2) = assay: as above; format: cell-based; conditions: piperacillin combined with constant 4 μg/ml inhibitor; Inc: 35° C. for 18 hours
Description: as §3

E. Coli GC2203 = assay: as above; format: cell-based; conditions: piperacillin combined with constant 4 μg/ml inhibitor; Inc: 35° C. for 18 hours
Description: as §3

[5] = system: Clinical isolates that have been adapted to cause infection in mice; assay: In vivo antibacterial protection (7 day survival of infected mice, ED50); set-up: species or system mice strain CD-1; conditions: Ratio of Piperacillin Inhibitor 4:1
Description: In Vivo Antibacterial Protection
Female mice strain CD-1, approximately 18-22 grams, were received from Charles River Laboratories and quarantined 7 days prior to use. In addition, mice may be rendered neutropenic using cytoxan for particular studies.
Clinical isolates that have been adapted to cause infection in mice, are used in the experiment, including infections with strains of E. coli, K. pneumoniae, M. morganii, E. cloacae, S. marcescens, C. freundii, staphylococci, streptococci, P. aeruginosa and N. gonorrhoeae.
Mice are challenged by injecting 0.5 ml intraperitoneally or 0.05 ml intranasally of a predetermined bacterial inoculum suspended in broth, saline or hog gastric mucin (supplemented with dried bovine hemoglobin for N. gonorrhoeae). […] Antibacterial doses (dose concentration prepared by two fold serial dilutions of the antibiotic) are dissolved or suspended in 0.2% aqueous agar or methocel, phosphate buffered saline or an adjuvant are administered orally, subcutaneously or intravenously in the following manner: • a) Orally or subcutaneously: Dose volume of 0.5 ml administered ½ hr after infection. A second dose may be administered 3 hr. after infection for treatment of infections with more virulent organisms. • b) Intravenously: Dose volume of 0.2 ml, administered ½ hr. after infection. For the treatment of infections with more virulent organisms, more doses, up to 48 hr may be administered. (Intravenous dosing will not exceed 3 doses/24 hr period.) • c) Oral pretreatment: Under special circumstances, the pH of the stomach needs to be adjusted in order to increase the gastric stability of the antibiotic. For this purpose, 0.5 ml of phosphate buffered saline (pH7.8, 0.06M) (or specific approved adjuvant) is administered orally ½ hr after infection, followed 5 minutes later by 0.5 ml of antibiotic (also orally) contained in phosphate buffered saline (pH7.8, 0.06M). Animal Species
A detailed explanation as to the number of animals needed for the determination of in vivo efficacy follows: • A) Novel antibiotics are tested at 5 different dose levels with 5 mice per dose level at each of three routes of administration (oral, subcutaneous and intravenous). […] This would require 25 mice/route with 3 routes/antibiotic or 75 mice per novel compound tested. One to two novel antibiotics will be tested per experiment (75-150 mice) • B) The effectiveness of the new compound must be compared to that of a standard, or antibiotic of known effectiveness. Known or previously tested antibiotics are tested at 5 dose levels with 5 mice per dose level by a single route of administration, for a total of 25 mice/antibiotic. Usually 3-6 antibiotics will be tested per experiment. (75-150 mice). • C) Untreated controls—In each of the above tests, untreated animals are infected with 3 different concentrations of bacterial inoculum with 10 mice per concentration (30 mice total in each and every test). These untreated controls are used to determine and maintain the infection level between 10-100 LD50s as required for test to test comparison and validity. Determination of Protective Effects of Antibacterial Agents:
The protective effects of the antibacterial agent(s) are measured by the survival of the infected untreated as compared to the treated animals. For this determination, animals are observed for 7 days after treatment. A census of survivors is taken twice daily and at that time dead as well as moribund animals are removed. The 7 day survival ratio from three separate tests are pooled for estimation of median effective dose (ED50) by computerized program for probit analysis (Cleeland, R. and E. Squires. 1991. Evaluation of New Antimicrobials in Vitro and in Experimental Animal Infections. In Antibiotics in Laboratory Medicine”, 3rd. ed., edited by Victor Lorian. Willams and Wilkins Baltimore, Md. pp. 752-783). […]

class A β-lactamase TEM-1, sequence (P62593 24-286 limits assumed): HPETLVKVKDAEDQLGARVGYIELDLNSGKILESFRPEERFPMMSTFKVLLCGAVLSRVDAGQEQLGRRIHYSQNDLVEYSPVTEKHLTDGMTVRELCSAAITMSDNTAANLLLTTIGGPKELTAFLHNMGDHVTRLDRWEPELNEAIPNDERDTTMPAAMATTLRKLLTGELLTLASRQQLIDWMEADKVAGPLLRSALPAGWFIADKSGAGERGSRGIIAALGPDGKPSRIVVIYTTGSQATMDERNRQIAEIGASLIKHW

Row | SMILES | IC50 [1] [nM] | IC50 (class C enzyme AmpC) [nM] | IC50 [2] [nM] | IC50 (class B enzyme CcrA) [nM] | Minimal Inhibitory Concentration S. Marcescens GC1781 Sme-1 + Ampc [3] [µg/mL] | Minimal Inhibitory Concentration E. Coli GC2844 (E. Coli GC2844) [µg/mL] | Minimal Inhibitory Concentration P. aeruginos GC1764 (Ampc) [4] [µg/mL] | Minimal Inhibitory Concentration E. Coli GC2847 (TEM-1) (E. Coli GC2847 (TEM-1)) [µg/mL] | Minimal Inhibitory Concentration E. Cloacae GC1477 (Ampc) (E. Cloacae GC1477 (Ampc)) [µg/mL] | Minimal Inhibitory Concentration S. aureus GC2216 (S. aureus GC2216) | Minimal Inhibitory Concentration E. Coli GC2894 (Ampc) (E. Coli GC2894 (Ampc)) [µg/mL] | Minimal Inhibitory Concentration E. Coli GC2920 (IRT-2) (E. Coli GC2920 (IRT-2)) [µg/mL] | Minimal Inhibitory Concentration E. Coli GC2203 (E. Coli GC2203) [µg/mL] | ED50 [5] [mg/kg]
1 | O=C(O)C1=CS[C@@H]2/C(=C\c3cn4c(n3)sc3cc(Cl)ccc34)C(=O)N12 [Example 3] | 5.6 | 3.2 | 22 | 74 | 1 | 2 | 8 | 4 | 16 | <0.06 µg/mL | 2 | 1 | 1 | 32 to 64
2 | O=C(O)C1=CS[C@@H]2/C(=C\c3cn4c5c(sc4n3)CCC5)C(=O)N12 [Example 5, (5R),(6Z)-6-(6,7-dihydro-5H-cyclopenta[d]imidazo[2,1-b][1,3]thiazol-2-ylmethylene)-7-oxo-4-thia-1-azabicyclo[3.2.0]hept-2-ene-2-carboxylic acid] | 1.4 | 2.1 | – | 240 | 0.5 | 2 | 1 | 4 | 16 | <0.06 µg/mL | 2 | 2 | 2 | 19.5
3 | O=C(O)C1=CS[C@@H]2/C(=C\c3ccc4c(c3)sc3nccn34)C(=O)N12 [Example 16, (5R),(6Z)-6-(imidazo[2,1-b]bebzothiazol-7-ylmethylene)-7-oxo-4-thia-1-azabicyclo[3.2.0]hept-2-ene-2-carboxylic acid] | 4.5 | 9.5 | 70 | 130 | 1 | 2 | 32 | 64 | >64 | 0.05 µg/mL | 32 | 2 | 4 | –
4 | O=C([O-])C1=CS[C@@H]2/C(=C\c3cc4oc5c(n4n3)CCCC5)C(=O)N12.[Na+] [Example 32, (5R,6Z)-7-oxo-6-(5,6,7,8-tetrahydropyrazolo[5,1-b][1,3]benzoxazol-2-ylmethylene)-4-thia-1-1-azabicyclo[3.2.0]hept-2-ene-2-carboxylic acid, sodium salt] | 2.6 | 5.6 | 110 | 180 | 2 | 2 | 64 | 16 | 64 | .05 µg/mL | 32 | 4 | 2 | –
